Results: patent US20030212115A1, “Remedies for inflammatory bowel diseases” (priority 2000, published 2003)

Experiments:
acetate-caused colitis = test: Acetate-caused colitis model; type: in vivo, Syrian strain male hamster; details: for area of ulcer: three times (18 h and 1 h before, 6 h after cause of colitis), anatomized 24 hours later, FIG. 1; for amount of the haemoglobin (index of the enteric hemorrhage): three times, washing supernatant of large intestine, 24 hours later, FIG. 2
Procedure: (1) Acetate-Caused Colitis Model.
(§1) After 1% aqueous acetic acid (10 ml/kg) is injected from anus of Syrian strain male hamster (7 weeks of ages) into large intestine with a flexible, oral sonde for rat, colitis was caused by clipping anus for 30 minutes. Distilled water was similarly injected into a normal group.
0.5% CMC (10 ml/kg) was orally administered to the normal group and the control group, and 10, 30 and 100 mg/10 ml/kg of a test drug suspended into 0.5% CMC were orally administered to the group administrated test drug three times in total, 18 hours and 1 hour before cause of colitis and 6 hours after cause, respectively.
They were anatomized 24 hours later, and large intestines of 7 cm length were sampled from anus. Then, these intestinals were incised, and these enterics were washed by physiological salt solution (5 ml). they were taken a picture of incised large intestines, and ulcer area (cm^2) was calculated by the image analysis. Moreover, the washing supernatant of large intestine was supplied for the measurement of the amount of the haemoglobin (index of the amount of the enteric hemorrhage).
As a test drug, 2-[5-amino-6-oxo-2-phenyl-1,6-dihydro-1-pyrimidinyl]-N-[1-[[5-(t-butyl)-1,3,4-oxadiazole-2-yl]carbonyl]-2-methylpropyl]acetamide (Compound 34) was used. FIG. 1 and FIG. 2 show the results.

[1] = system: picrylsulfonic acid (TNBS)-caused colitis; test: Picrylsulfonic acid (TNBS)-caused colitis model; type: in vivo, Syrian strain male hamster; details: for area of the ulcer: once a day before cause, then twice a day, anatomized 5 days later, FIG. 3; for amount of the haemoglobin (index of the enteric hemorrhage): supernatant of washing of large intestine, 5 days later, FIG. 4
Procedure: (2) Picrylsulfonic Acid (TNBS)-Caused Colitis Model.
as §1, with “90 mg/ml of TNBS/isotonic solution (with 15 vol % ethanol) liquor (0.1 ml/body)” for “1% aqueous acetic acid (10 ml/kg)”
0.5% CMC (10 ml/kg) was orally administered to the normal group and the control group, and 25, 50 and 100 mg/10 ml/kg doses of a test drug suspended into 0.5% CMC were orally administered to the group administrated test drug once a day before cause of colitis and twice a day until the day of cause before anatomy, respectively.
They were anatomized 5 days later, and large intestines of 3 cm length were sampled from anus. Then, these intestinals were incised, and these enterics were washed by physiological salt solution (2 ml). they were taken a picture of incised large intestines, and ulcer area (cm^2) was calculated by the image analysis. Moreover, the supernatant of washing of large intestine was supplied to the measurement of the amount of the haemoglobin (index of the amount of the enteric hemorrhage).
As a test drug, compound 34 was used as well as example (1). FIG. 3 and FIG. 4 show the results.

CC(C)C(NC(=O)Cn1c(-c2ccccc2)ncc(N)c1=O)C(=O)c1nnc(C(C)(C)C)o1 (centres unmarked) [compound 34, 2-[5-amino-6-oxo-2-phenyl-1,6-dihydro-1-pyrimidinyl]-N-[1-[[5-(t-butyl)-1,3,4-oxadiazole-2-yl]carbonyl]-2-methylpropyl]acetamide]
intentionally suppressed: area of ulcer (acetate-caused colitis; 30 mg/kg orally) | amount of the haemoglobin (index of the enteric hemorrhage) (acetate-caused colitis; 30 mg/kg orally) | area of ulcer (acetate-caused colitis; 100 mg/kg orally) | amount of the haemoglobin (index of the enteric hemorrhage) (acetate-caused colitis; 100 mg/kg orally) | area of the ulcer ([1]; 50 mg/kg orally) | amount of the haemoglobin (index of the enteric hemorrhage) ([1]; 50 mg/kg orally) | area of the ulcer ([1]; 100 mg/kg orally) | amount of the haemoglobin (index of the enteric hemorrhage) ([1]; 100 mg/kg orally)
